The subject of one series is HIV-1 strain 92HT599. Briefly: Antiviral activity: p24 estimation in MT2 cells infected with HIV-1. It is filed as cell-based. Particulars: for IC50: Human immunodeficiency virus 1, MT2; for inhibition at 0.01 µM / inhibition at 0.1 µM / inhibition at 1 µM: Human immunodeficiency virus 1, MT2 cells, HIV-1 92HT599, p24, ~96 hours.
A short description of series [1]: Single dose oral pharmacokinetic study. To be noted: mouse, plasma; Mice oral PK @30 mg/kg. The series is classed as in vivo. As to the method: The test item was administered through oral route to animals (rat/mice) at 30 mg/kg dose in a suitable vehicle (10% Solutol+20% PEG) at 10 ml/kg dose volume. Blood samples (˜50 μL at each time point) were collected from retro-orbital plexus using K3 EDTA as anticoagulant in eppendorf tubes at defined time intervals 30 minutes, 1 hour, 2 hour, 4 hour, 8 hour, 24 hour & 48 hour under light ether anaesthesia. The samples were centrifuged at 3500×g to separate plasma and stored at −80° C. until analysis. Plasma […] for Mice were processed as per described in sample preparation.
Standard solutions of the test compound 1 mg/mL solutions were prepared in DMSO and further dilutions were made in methanol. The calibration curve samples for LCMSMS analysis were prepared by spiking 25 μl of Mice plasma with 2.5 μl and of the appropriate working standard solution to obtain final concentrations 0.078, 0.156, 0.312, 0.625, 1.25, 2.5, 5, 10, 20 & 40 µg/ml. To the test compound plasma extraction was carried out using Acetonitrile precipitation. After reconstitution with solvent (50% Acetonitrile in Buffer) samples were analyzed by LCMSMS to get the concentrations to calculate PK Parameters.

The mark [2] stands for this setting: 0% serum, read-out: Antiviral activity IC50 (nM) 0%.
[3] abbreviates: read-out: Antiviral activity IC50 (nM) 40% serum.

Read-outs that look alike come from different tables or passages of the source.

Description for in vitro: On day 1 calculate the number of cells required for the assay and seed 3×10^4 cells in 200 μl per well. Weigh the compound and dissolve it in DMSO to get 10 mM stock which is further diluted to 3 mM and 1 mM. The drugs from these stocks were added to plate to get final concentration of 100 μM, 30 μM and 10 μM. […] Incubate for 4 days in 5% CO2 incubator at 37° C. On day 4, 100 μl of medium was removed from each well without disturbing the cells. Add 10 μl of MTT reagent and incubate for 4 hours at 5% CO2 incubator at 37° C. for formation of crystals. Add 200 μl of 0.1N acidic isopropanol to dissolve the crystals and read the plate at 590 nm.

As to `CC(C)C1=C2[C@H]3CC[C@@H]4[C@@]5(C)CC[C@H](OC(=O)[C@H]6C[C@@H](C(=O)O)C6(C)C)C(C)(C)[C@@H]5CC[C@@]4(C)[C@]3(C)CC[C@@]2(C(=O)N2CCCC2c2ncc(-c3ccccc3)[nH]2)CC1=O` (stereo partly drawn) [Example 1, (1R,3S)-3-((((3aR,5aR,5bR,7aR,9S,11aR,11bR,13aS)-1-isopropyl-5a,5b,8,8,11a-pentamethyl-2-oxo-3a-((S)-2-(5-phenyl-1H-imidazol-2-yl)pyrrolidine-1-carbonyl)-3,3a,4,5,5a,5b,6,7,7a,8,9,10,11,11a,11b,12,13,13a-octadecahydro-2H-cyclopenta[a]chrysen-9-yl)oxy)carbonyl)-2,2-dimethlcyclobutane-1-carboxylic acid], the IC50 (in general, the concentration at which inhibition is half-maximal) in the series on HIV-1 strain 92HT599 (setting [2]) is 5.21 nM. In addition, in the series on HIV-1 strain 92HT599 (setting [3]), the IC50 is 3.92 nM. Besides, in the series with HIV-1 strain 92HT599, the inhibition (in general, the change of the read-out against control, counted positive when it falls) at 0.01 µM was 100%; the inhibition at 0.1 µM is 98%; the inhibition at 1 µM is 99%. Also, in the series “in vitro”, the viability (commonly a per cent measure of how many cells are alive, often set against a control) at 4 days, 10 μM turned out to be 80%; the viability at 4 days, 30 μM stood at 67%; the viability at 4 days, 100 μM was determined as 62%. For the same compound, in series [1], the AUC(0-t) – broadly, exposure summed from dosing to a finite time, without extrapolation to infinity – was 69.8 µg·h/mL and the peak level (Cmax) was 8.65 µg/mL.

In the case of `CC(C)C1=C2[C@H]3CC[C@@H]4[C@@]5(C)CC[C@H](OC(=O)[C@H]6C[C@@H](C(=O)O)C6(C)C)C(C)(C)[C@@H]5CC[C@@]4(C)[C@]3(C)CC[C@@]2(C(=O)NC(C)(C)CO)CC1=O` [Example 15, (1R,3S)-3-((((3aR,5aR,5bR,7aR,9S,11aR,11bR,13aS)-3a-((1-hydroxy-2-methylpropan-2-yl)carbamoyl)-1-isopropyl-5a,5b,8,8,11a-pentamethyl-2-oxo-3,3a,4,5,5a,5b,6,7,7a,8,9,10,11,11a,11b,12,13,13a-octadecahydro-2H-cyclopenta[a]chrysen-9-yl)oxy)carbonyl)-2,2-dimethylcyclobutane-1-carboxylic acid], in the series on HIV-1 strain 92HT599 (setting [2]), the IC50 is 2.84 nM. Besides, the IC50 in the series on HIV-1 strain 92HT599 (setting [3]) is 415 nM. In the series on HIV-1 strain 92HT599, the inhibition at 0.01 µM is 97%, the inhibition at 0.1 µM was 100% and the inhibition at 1 µM was 100%. In “in vitro”, this compound returned a viability at 4 days, 10 μM of 70%; a viability at 4 days, 30 μM of 22%; a viability at 4 days, 100 μM of 6%. In series [1], the AUC(0-t) is 88.7 µg·h/mL and the maximum concentration (Cmax) (commonly the maximum level reached in the sampled fluid or tissue) is 9.08 µg/mL.
